Tests used:
[1] = wn = mass fraction of the nth substance listed; settings: 298.15 K, 101 kPa, Liquid; for viscosity: Capillary tube (Ostwald / Ubbelohde) method; for speed of sound: Linear variable-path acoustic interferometer; for mass density: Vibrating tube method
[2] = refractive index (Na D-line) (dimensionless); wn = mass fraction of the nth substance listed; settings: 298.15 K, 101 kPa, Liquid, Standard Abbe refractometry

[Ba+2].[Cl-].[Cl-] [barium chloride] + O
Settings | mass density, [1] [kg/m3] | refractive index, [2] | speed of sound, [1] [m/s] | viscosity, [1] [mPa·s]
w1 = 0.01 | 997.56 | 1.333 | 1516.7 | 0.909
w1 = 0.03 | 998.66 | 1.3337 | 1521.4 | 0.915
w1 = 0.05 | 999.74 | 1.3345 | 1525.3 | 0.921

— the NIST ThermoML archive (doi:10.1021/je400077c)
